Usually EC50 stands for the concentration needed to bring the measured effect to its halfway point. Read a low EC50 as higher potency in that assay.

Data on 15 compounds can be found in patent US20180228780A1, “3-(1H-PYRROLO[2,3-C]PYRIDIN-2-YL)-1H-INDAZOLES AND THERAPEUTIC USES THEREOF” (Samumed, LLC, priority 2015, published 2018).

Common to all, as to assay type: cell-based
Test [1] deals with Wnt activity (Sp5-Luc reporter, SW480 colon carcinoma cells). Kind of test: Screening assay for Wnt activity: Sp5-Luc reporter gene assay in SW480 cells. The note with it: Homo sapiens; for inhibition at 10 µM: SW480, read-out: percent inhibition at 10 μM; for EC50: SW480 Sp5-Luc reporter, overnight incubation. An excerpt:
The screening assay for Wnt activity is described as follows. Reporter cell lines can be generated by stably transducing cancer cell lines (e.g., colon cancer) or primary cells (e.g., IEC-6 intestinal cells) with a lentiviral construct that includes a Wnt-responsive promoter driving expression of the firefly luciferase gene.
SW480 colon carcinoma cells were transduced with a lentiviral vector expressing luciferase with a human Sp5 promoter consisting of a sequence of eight TCF/LEF binding sites. SW480 cells stably expressing the Sp5-Luc reporter gene and a hygromycin resistance gene were selected by treatment with 150 μg/mL of hygromycin for 7 days. These stably transduced SW480 cells were expanded in cell culture and used for all further screening activities. […] For Sp5-Luc reporter gene assays, the cells were plated at 4,000 cells/well in 384-well plates with medium containing 1% fetal bovine serum and incubated overnight at 37° C. and 5% CO2. Following incubation, 20 μl of BrightGlo luminescence reagent (Promega) was added to each well of the 384-well assay plates. The plates were placed on an orbital shaker for 2 min and then luminescence was quantified using the Envision (Perkin Elmer) plate reader. Readings were normalized to DMSO only treated cells, and normalized activities were utilized for EC50 calculations using the dose-response log (inhibitor) vs. response-variable slope (four parameters) nonlinear regression feature available in GraphPad Prism 5.0 (or Dotmatics).
In general terms: A reporter such as luciferase makes a cellular process visible.

In test [2] the test system is IL-6 (THP-1 cells). Kind of test: IL-6 inhibition in THP-1 monocytes (HTRF). As to conditions: Homo sapiens; for inhibition at 10 µM: THP-1, read-out: percentage in parentheses printed under EC50 >10; for EC50: IL-6 inhibition, THP-1 cells, HTRF, 10-point dose-response starting from 10 μM. How it is done:
Compound Screening: THP-1 cells were cultured in basal media with 1% FBS for 24 hours before the start of the assay. […] THP-1 cells were plated at 5000 cells/well in the 384-well plates and incubated at 37° C. for 2 h. 500 ng/mL of […] was added after 2 hours and cells were incubated for another 22 hours at 37° C. Plates were spun in a centrifuge for 1 minute at 10,000 rpm and a mixture of anti-IL6 XL665, and anti-IL6 Cryptate diluted in reconstitution buffer (Cisbio Inc.) was added to each well. Following incubation for 3 hrs at room temperature, Homogeneous Time-Resolved Fluorescence (HTRF) was measured using the Envision (Perkin Elmer) at 665 nm and […]. The ratio of fluorescence at 665 nm to 620 nm was used as a readout for IL6 quantification. All samples were processed in duplicate. Readings were normalized to DMSO treated cells and normalized activities were utilized for EC50 calculations using the dose-response log (inhibitor) vs. response-variable slope (four parameters) nonlinear regression feature available in GraphPad Prism 5.0 (or Dotmatics).
A general note: Time-resolved FRET reads energy transfer from a long-lived donor to a nearby acceptor.

The subject of test [3] is SW480 colon cancer cells. Kind of test: Cell viability assay (CellTiter-Blue) in SW480 colon cancer cells. As to conditions: Homo sapiens; for EC50: 96 h, SW480 cell viability, four days incubation; for inhibition at 10 µM: SW480, read-out: percent inhibition at 10 μM. The protocol: Representative compounds were screened using the following assay procedure to assess the effect on cell viability as described below.
Approximately 2×10^3 SW480 colon cancer cells were seeded into each well and allowed to incubate in the presence or absence of compound for four days at 37° C./5% CO2. Eight replicates of DMSO-treated cells served as controls and cells treated with compound were performed in duplicate.
After incubation, 20 μL of CellTiter-Blue (Promega) was added to each well allowed to incubate for approximately 3 hours. This reagent was a buffered solution which contains resazurin, metabolically active cells were able to reduce rezarurin (blue) into resorufin (pink) which was highly fluorescent. This measured fluorescence was used as a readout for cell viability.
A general note: The colour change of resazurin is a common sign of viable cells or microbes.

In test [4] the test system is Primary human fibroblasts derived from IPF patients (LL29 cells). Kind of test: Inhibition of the fibrotic process: αSMA staining in TGF-β1-treated LL29 fibroblasts. As to conditions: Fibroblast; for EC50: 96 h, LL29 cells, TGF-β1 20 ng/mL, 4 days, % αSMA-positive cells; for inhibition at 10 µM: read-out: percent inhibition at 10 μM. The text has this:
Representative compounds were screened using primary human fibroblasts (derived from IFF patients) treated with TGF-β1 to determine their ability to inhibit the fibrotic process.
K. L., et.al., “RhoA signaling modulates cyclin D1 expression in human lung fibroblasts; implications for idiopathic pulmonary fibrosis”, Respiratory Research (2006), 7(1), 88] were obtained from American Type Culture Collection (ATCC) and expanded in F12 medium supplemented with 15% Fetal Bovine Serum and Penicillin/Streptomycin.
LL29 cells are plated at 1,500 cells/well in 80 μL/well F12 medium supplemented with 1% Fetal Bovine Serum. […] Wells treated with TGF-β1 and containing DMSO were used as controls. […] Following incubation for 4 days, SYTOX green nucleic acid stain (Life Technologies [Thermo Fisher Scientific]) was added to the wells at a final concentration of 1 μM and incubated at room temperature for 30 min.

As to `c1cc(-c2ccc3[nH]nc(-c4cc5c(-c6ccncc6)cncc5[nH]4)c3c2)ccn1` [Compound 130, 5-(Pyridin-4-yl)-3-(4-(pyridin-4-yl)-1H-pyrrolo[2,3-c]pyridin-2-yl)-1H-indazole], the inhibition at 10 µM was 24.7% in test [1], 20.5% in test [2] and 16.6% in test [3]. Also, the EC50 in test [1] was over 10 µM; in test [2], over 10 µM; in test [3], over 10 µM; in test [4], 1.23 µM.

For `O=C(Nc1cncc(-c2ccc3[nH]nc(-c4cc5c(-c6ccncc6)cncc5[nH]4)c3c2)c1)C1CCCCC1` [Compound 135, N-(5-(3-(4-(Pyridin-4-yl)-1H-pyrrolo[2,3-c]pyridin-2-yl)-1H-indazol-5-yl)pyridin-3-yl)cyclohexanecarboxamide], the values for the inhibition at 10 µM in test [1] and in test [3] were 20.8% and 6.1%, respectively. Moreover, the EC50 in test [1] was over 10 µM; in test [2], 1.63 µM; in test [3] it was over 10 µM; in test [4], 9.98 µM.

With `c1ccc(-c2ccc3[nH]nc(-c4cc5c(-c6ccncc6)cncc5[nH]4)c3c2)nc1` [Compound 140, 5-(Pyridin-2-yl)-3-(4-(pyridin-4-yl)-1H-pyrrolo[2,3-c]pyridin-2-yl)-1H-indazole], the EC50 was 1.29 µM in test [1], 0.177 µM in test [2], 1.06 µM in test [3] and 0.75 µM in test [4].

Turning to `Nc1cncc(-c2ccc3[nH]nc(-c4cc5c(N6CCCCC6)cncc5[nH]4)c3c2)c1` [Compound 171, 5-(3-(4-(Piperidin-1-yl)-1H-pyrrolo[2,3-c]pyridin-2-yl)-1H-indazol-5-yl) pyridin-3-amine], the EC50 in test [1] is 3.65 µM; in test [2], 1.54 µM; in test [3], over 10 µM; in test [4], over 10 µM. For the same compound, the results for the inhibition at 10 µM in test [3] and in test [4] were 43% and 9.8%, respectively.

`c1cc(-c2ccc3[nH]nc(-c4cc5c(-c6ccsc6)cncc5[nH]4)c3c2)ccn1` [Compound 298, 5-(Pyridin-4-yl)-3-(4-(thiophen-3-yl)-1H-pyrrolo[2,3-c]pyridin-2-yl)-1H-indazole]: the EC50 was determined as 1.33 µM in test [1], 1.09 µM in test [2], 1.35 µM in test [3] and 0.716 µM in test [4].

As for `c1cc(-c2cncc3[nH]c(-c4n[nH]c5ccc(-c6cncc(CN7CCCCC7)c6)cc45)cc23)co1` [Compound 323, 3-(4-(Furan-3-yl)-1H-pyrrolo[2,3-c]pyridin-2-yl)-5-(5-(piperidin-1-ylmethyl)pyridin-3-yl)-1H-indazole], the EC50 in test [1] was found to be 0.418 µM; in test [2], 0.219 µM; in test [3], 0.57 µM; in test [4], 1.39 µM.

Take `CS(=O)(=O)NCc1cc(F)cc(-c2cncc3[nH]c(-c4n[nH]c5ccc(-c6cncc(NC(=O)Cc7ccccc7)c6)cc45)cc23)c1` [Compound 486, N-(5-(3-(4-(3-Fluoro-5-(methylsulfonamidomethyl)phenyl)-1H-pyrrolo[2,3-c]pyridin-2-yl)-1H-indazol-5-yl)pyridin-3-yl)-2-phenylacetamide]: the EC50 in test [1] is 3.48 µM; in test [2] it was 0.574 µM; in test [3], over 10 µM; in test [4], 4.77 µM. Besides, the inhibition at 10 µM in test [3] worked out at 45.4%.

On to `CC(C)Nc1cncc(-c2ccc3[nH]nc(-c4cc5c(-c6cc(F)cc(CNS(C)(=O)=O)c6)cncc5[nH]4)c3c2)c1` [Compound 488, N-(3-Fluoro-5-(2-(5-(5-(isopropylamino)pyridin-3-yl)-1H-indazol-3-yl)-1H-pyrrolo[2,3-c]pyridin-4-yl)benzyl)methanesulfonamide], for which the EC50 amounted to 0.759 µM in test [1], 0.13 µM in test [2], 1.65 µM in test [3] and 2.22 µM in test [4].

For the compound `CCCCC(=O)Nc1cncc(-c2ccc3[nH]nc(-c4cc5c(-c6cc(F)cc(CNS(C)(=O)=O)c6)cncc5[nH]4)c3c2)c1` [Compound 495, N-(5-(3-(4-(3-Fluoro-5-(methylsulfonamidomethyl)phenyl)-1H-pyrrolo[2,3-c]pyridin-2-yl)-1H-indazol-5-yl)pyridin-3-yl)pentanamide], the EC50 in test [1] was 1.73 µM; in test [2], 0.397 µM; in test [3], 3.44 µM; in test [4], over 10 µM. The inhibition at 10 µM in test [4] was 3.3%.

As for `CS(=O)(=O)NCc1cc(F)cc(-c2cncc3[nH]c(-c4n[nH]c5ccc(-c6cncnc6)cc45)cc23)c1` [Compound 503, N-(3-Fluoro-5-(2-(5-(pyrimidin-5-yl)-1H-indazol-3-yl)-1H-pyrrolo[2,3-c]pyridin-4-yl)benzyl)methanesulfonamide], the EC50 is 2.54 µM in test [1], 0.042 µM in test [2], over 10 µM in test [3] and over 10 µM in test [4]. Moreover, the inhibition at 10 µM in test [3] was determined as 20.3%; in test [4], 17.1%.

For `Fc1ccc(-c2cncc3[nH]c(-c4n[nH]c5ccc(C6=CCNCC6)cc45)cc23)cc1` [Compound 522, 3-(4-(4-Fluorophenyl)-1H-pyrrolo[2,3-c]pyridin-2-yl)-5-(1,2,3,6-tetrahydropyridin-4-yl)-1H-indazole], the EC50 is 3.98 µM in test [1], over 10 µM in test [2], 1.67 µM in test [3] and 2.69 µM in test [4]. Further, in test [2], the inhibition at 10 µM was 22%.

On to `CN(C)CCOc1cncc(-c2ccc3[nH]nc(-c4cc5c(-c6ccc(F)cc6)cncc5[nH]4)c3c2)c1` [Compound 531, 2-((5-(3-(4-(4-Fluorophenyl)-1H-pyrrolo[2,3-c]pyridin-2-yl)-1H-indazol-5-yl)pyridin-3-yl)oxy)-N,N-dimethylethan-1-amine], for which the EC50 amounted to 2.01 µM in test [1], 2.76 µM in test [2], 0.976 µM in test [3] and 0.607 µM in test [4].

Take `Fc1ccccc1-c1cncc2[nH]c(-c3n[nH]c4ccc(-c5cn[nH]c5)cc34)cc12` [Compound 539, 3-(4-(2-Fluorophenyl)-1H-pyrrolo[2,3-c]pyridin-2-yl)-5-(1H-pyrazol-4-yl)-1H-indazole]: the concentration for a half-maximal effect (EC50) amounted to 0.049 µM in test [1], 0.037 µM in test [2], 0.134 µM in test [3] and 0.164 µM in test [4].

For `Fc1ccccc1-c1cncc2[nH]c(-c3n[nH]c4ccc(-c5cncc(OC6CCNCC6)c5)cc34)cc12` [Compound 544, 3-(4-(2-Fluorophenyl)-1H-pyrrolo[2,3-c]pyridin-2-yl)-5-(5-(piperidin-4-yloxy)pyridin-3-yl)-1H-indazole], the EC50 in test [1] stood at 1.83 µM; in test [2] it was 0.436 µM; in test [3], 1.35 µM; in test [4] it was 2.76 µM.

With `NC1CN(c2cncc(-c3ccc4[nH]nc(-c5cc6c(N7CCCCC7)cncc6[nH]5)c4c3)n2)C1` [Compound 606, 1-(6-(3-(4-(Piperidin-1-yl)-1H-pyrrolo[2,3-c]pyridin-2-yl)-1H-indazol-5-yl)pyrazin-2-yl)azetidin-3-amine], the EC50 stood at 0.738 µM in test [1], 0.306 µM in test [2], 2.81 µM in test [3] and 0.486 µM in test [4].
